Measured values as given in US20120157439A1, “RAF INHIBITOR COMPOUNDS AND METHODS OF USE THEREOF” (GENENTECH, INC., priority 2009, published 2012).
Like-named read-outs stand apart in the source and are kept apart here.

Biological target: T1, V600E full-length B-Raf (Homo sapiens, UniProt P15056, V600E)
T1 construct: 1 μM FSBA-MEK and 20 nM V600E full-length B-Raf; made in house; host or cells: sf9 insect cells (baculovirus)
Assay: B-Raf IC50 Assay (B-RAF V600E inhibition assay, Example A)
Type: biochemical
Procedure, shortened: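 Full-length V600E B-Raf (20 nM, from Sf9 baculovirus) was preincubated 15 min with 1 μM FSBA-modified wild-type MEK in pH 7.2 Pipes/KCl/MgCl2 buffer, then started with 4 μM ATP plus [γ-33P]ATP. After 60 min at 22 °C, TCA-quenched product was filter-captured and 33P incorporation counted by scintillation.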

[1] = B-Raf V600E assay of Example A: less than 100 nM, read-out: IC50
[2] = B-Raf V600E assay of Example A: less than about 1 μM, read-out: IC50
[3] = incorporation of radio labeled phosphate from [γ-33P]ATP into FSBA-modified wild-type MEK, 4 μM ATP, 20 nM V600E full-length B-Raf, 60-minute incubation, 22° C., read-out: BRAF V600E IC50

T1 sequence (P15056 whole entry V600E): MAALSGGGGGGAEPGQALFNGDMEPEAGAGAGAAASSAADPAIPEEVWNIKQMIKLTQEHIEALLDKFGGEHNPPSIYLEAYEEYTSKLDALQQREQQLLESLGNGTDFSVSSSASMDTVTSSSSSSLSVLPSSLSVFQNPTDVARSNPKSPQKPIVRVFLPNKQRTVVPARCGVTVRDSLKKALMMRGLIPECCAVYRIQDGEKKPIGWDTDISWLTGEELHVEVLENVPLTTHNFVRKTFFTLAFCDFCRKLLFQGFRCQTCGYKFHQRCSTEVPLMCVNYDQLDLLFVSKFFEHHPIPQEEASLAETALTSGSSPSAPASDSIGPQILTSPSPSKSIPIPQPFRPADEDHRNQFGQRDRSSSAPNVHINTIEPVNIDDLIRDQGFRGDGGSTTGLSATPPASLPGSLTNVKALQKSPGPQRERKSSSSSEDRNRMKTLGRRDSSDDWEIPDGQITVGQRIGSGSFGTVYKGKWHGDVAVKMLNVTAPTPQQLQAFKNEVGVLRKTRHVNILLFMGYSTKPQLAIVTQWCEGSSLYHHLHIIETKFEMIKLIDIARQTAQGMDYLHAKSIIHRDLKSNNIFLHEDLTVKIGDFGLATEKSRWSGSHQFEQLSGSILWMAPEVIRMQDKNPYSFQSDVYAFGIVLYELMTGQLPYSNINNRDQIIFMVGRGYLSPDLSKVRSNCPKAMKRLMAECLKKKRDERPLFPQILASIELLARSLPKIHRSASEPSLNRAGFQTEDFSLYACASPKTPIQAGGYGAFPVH

Compound: CCCS(=O)(=O)Nc1ccc(F)c(NC(=O)c2scc3c(N)ncnc23)c1F [Example 100, 4-Amino-N-(2,6-difluoro-3-(propylsulfonamido)phenyl)thieno[3,4-d]pyrimidine-7-carboxamide]
- IC50 [1]: < 100 nM
- IC50 [2]: < 1000 nM
- IC50 [3]: 29.8 nM

Compound: CCCS(=O)(=O)Nc1ccc(F)c(NC(=O)c2ccc3c(N)ncnn23)c1F [Example 101, 4-Amino-pyrrolo[2,1-f][1,2,4]triazine-7-carboxylic acid [2,6-difluoro-3-(propane-1-sulfonylamino)-phenyl]-amide]
- IC50 [1]: < 100 nM
- IC50 [2]: < 1000 nM
- IC50 [3]: 2.5 nM

Compound: CCCS(=O)(=O)Nc1ccc(F)c(NC(=O)c2c[nH]c3c(N)ncnc23)c1F [Example 102, 4-Amino-5H-pyrrolo[3,2-d]pyrimidine-7-carboxylic acid [2,6-difluoro-3-(propane-1-sulfonylamino)-phenyl]-amide]
- IC50 [1]: < 100 nM
- IC50 [2]: < 1000 nM
- IC50 [3]: 20.6 nM

Compound: CCCS(=O)(=O)Nc1ccc(F)c(NC(=O)c2c[nH]c3c(NC)ncnc23)c1F [Example 103, 4-Methylamino-5H-pyrrolo[3,2-d]pyrimidine-7-carboxylic acid [2,6-difluoro-3-(propane-1-sulfonylamino)-phenyl]-amide]
- IC50 [2]: < 1000 nM
- IC50 [3]: 115 nM

Compound: CCCS(=O)(=O)Nc1ccc(F)c(NC(=O)c2c[nH]c3c(NC4CC4)ncnc23)c1F [Example 104, 4-Cyclopropylamino-5H-pyrrolo[3,2-d]pyrimidine-7-carboxylic acid [2,6-difluoro-3-(propane-1-sulfonylamino)-phenyl]-amide]
- IC50 [1]: < 100 nM
- IC50 [2]: < 1000 nM
- IC50 [3]: 47.6 nM

Compound: CCCS(=O)(=O)Nc1ccc(F)c(NC(=O)c2c[nH]c3c(NOC)ncnc23)c1F [Example 105, 4-Methoxyamino-5H-pyrrolo[2-d]pyrimidine-7-carboxylic acid [2,6-difluoro-3-(propane-1-sulfonylamino)-phenyl]-amide]
- IC50 [2]: < 1000 nM
- IC50 [3]: 112 nM

Compound: CCCS(=O)(=O)Nc1ccc(F)c(NC(=O)c2c[nH]c3c(C)ncnc23)c1F [Example 106, 4-Methyl-5H-pyrrolo[3,2-d]pyrimidine-7-carboxylic acid [2,6-difluoro-3-(propane-1-sulfonylamino)-phenyl]-amide]
- IC50 [2]: < 1000 nM
- IC50 [3]: 189 nM

Compound: CCCS(=O)(=O)Nc1ccc(Cl)c(NC(=O)c2csc3cncnc23)c1Cl [Example 107, Thieno[3,2-d]pyrimidine-7-carboxylic acid [2,6-dichloro-3-(propane-1-sulfonylamino)-phenyl]-amide]
- IC50 [1]: < 100 nM
- IC50 [2]: < 1000 nM
- IC50 [3]: 9.6 nM

Compound: CCCS(=O)(=O)Nc1ccc(F)c(NC(=O)c2csc3cncnc23)c1F [Example 108, Thieno[3,2-d]pyrimidine-7-carboxylic acid [2,6-difluoro-3-(propane-1-sulfonylamino)-phenyl]-amide]
- IC50 [2]: < 1000 nM
- IC50 [3]: 288 nM

Compound: O=C(Nc1c(F)ccc(NS(=O)(=O)CCCF)c1F)c1csc2cncnc12 [Example 109, Thieno[3,2-d]pyrimidine-7-carboxylic acid [2,6-difluoro-3-(3-fluoro-propane-1-sulfonyl-amino)-phenyl]-amide]
- IC50 [1]: < 100 nM
- IC50 [2]: < 1000 nM
- IC50 [3]: 40.3 nM

Compound: O=C(Nc1c(Cl)ccc(NS(=O)(=O)CCCF)c1Cl)c1csc2cncnc12 [Example 110, Thieno[3,2-d]pyrimidine-7-carboxylic acid [2,6-dichloro-3-(3-fluoro-propane-1-sulfonyl-amino)-phenyl]-amide]
- IC50 [1]: < 100 nM
- IC50 [2]: < 1000 nM
- IC50 [3]: 2.69 nM

Compound: CCCS(=O)(=O)Nc1ccc(Cl)c(NC(=O)c2csc3cncnc23)c1F [Example 111, Thieno[3,2-d]pyrimidine-7-carboxylic acid [6-chloro-2-fluoro-3-(propane-1-sulfonylamino)-phenyl]-amide]
- IC50 [1]: < 100 nM
- IC50 [2]: < 1000 nM
- IC50 [3]: 21.1 nM

Compound: O=C(Nc1c(Cl)ccc(NS(=O)(=O)CCCF)c1F)c1nsc2cncnc12 [Example 112, Isothiazolo[4,5-d] pyrimidine-3-carboxylic acid [6-chloro-2-fluoro-3-(3-fluoro-propane-1-sulfonylamino)-phenyl]-amide]
- IC50 [1]: < 100 nM
- IC50 [2]: < 1000 nM
- IC50 [3]: 7.29 nM

Compound: CCCS(=O)(=O)Nc1ccc(F)c(NC(=O)c2c[nH]c3cncnc23)c1F [Example 113, 5H-Pyrrolo[3,2-d] pyrimidine-7-carboxylic acid [2,6-difluoro-3-(propane-1-sulfonylamino)-phenyl]-amide]
- IC50 [2]: < 1000 nM
- IC50 [3]: 353 nM
